Data published in ChEMBL document CHEMBL1135385, “New highly active taxoids from 9beta-dihydrobaccatin-9,10-acetals. Part 2” (Bioorg Med Chem Lett, 2002).
≈ marks a conversion by molar mass, not a printed value.

What was measured:
PC-12 = assay: Concentration required to obtain half of the maximal inhibition for cell growth in human non-small cell lung cancer cell line(PC-12) was determined by using MTT assay when the cells were exposed to compound for 72 hr; details: PC-12, Lung
PC-6 [1] = assay: Concentration required to obtain half of the maximal inhibition for cell growth in vincristine-resistant cell line expressing P-glycoprotein (PC-6/VCR29-9) was determined by using MTT assay when the cells were exposed to compound for 72 hr; assay type: functional; details: Homo sapiens, PC-6, 72 h
PC-6 [2] = assay: Concentration required to obtain half of the maximal inhibition for cell growth in human small cell lung cancer(PC-6) was determined by using MTT assay when the cells were exposed to compound for 72 hr; assay type: functional; details: PC-6, Lung
[3] = Solubility (JP1 at pH 1.2); assay type: physicochemical; details: JP1, pH 1.2
[4] = Solubility (JP2 at pH 6.8); assay type: physicochemical; details: JP2, pH 6.8

| GI50 (PC-12) [ng/mL] | solubility [3] [µg/mL] | solubility [4] [µg/mL] | Structure (SMILES) | GI50 (PC-6 [1]) [ng/mL] | GI50 (PC-6 [2]) [ng/mL] |
| --- | --- | --- | --- | --- | --- |
| 0.038 (≈ 0.0455 nM) |  |  | CC(=O)O[C@@]12CO[C@@H]1CC[C@@]1(C)[C@@H]3OC(C)(C)O[C@@H]3C3=C(C)[C@@H](OC(=O)[C@H](O)[C@@H](NC(=O)OC(C)(C)C)c4ccncc4)C[C@@](O)([C@@H](OC(=O)c4ccccc4)[C@@H]12)C3(C)C | 3.84 (≈ 4.6 nM) | 0.386 (≈ 0.462 nM) |
| 0.665 (≈ 0.781 nM) | 333 (≈ 391000 nM) | 57 (≈ 67000 nM) | CC(=O)O[C@@]12CO[C@@H]1C[C@H](O)[C@@]1(C)[C@@H]3OC(C)(C)O[C@@H]3C3=C(C)[C@@H](OC(=O)[C@H](O)[C@@H](NC(=O)OC(C)(C)C)c4ccncc4)C[C@@](O)([C@@H](OC(=O)c4ccccc4)[C@H]21)C3(C)C | 13.5 (≈ 15.9 nM) | 0.38 (≈ 0.447 nM) |
| 0.116 (≈ 0.139 nM) |  |  | CC(=O)O[C@@]12CO[C@@H]1CC[C@@]1(C)[C@@H]3OC(C)(C)O[C@@H]3C3=C(C)[C@@H](OC(=O)[C@H](O)[C@@H](NC(=O)OC(C)(C)C)c4ccccn4)C[C@@](O)([C@@H](OC(=O)c4ccccc4)[C@@H]12)C3(C)C | 0.538 (≈ 0.644 nM) | 0.145 (≈ 0.174 nM) |
| 2.26 (≈ 2.61 nM) |  |  | CO[C@H]1C[C@H]2OC[C@@]2(OC(C)=O)[C@H]2[C@H](OC(=O)c3ccccc3)[C@]3(O)C[C@H](OC(=O)[C@H](O)[C@@H](NC(=O)OC(C)(C)C)c4ccncc4)C(C)=C([C@H]4OC(C)(C)O[C@H]4[C@]12C)C3(C)C | 38.1 (≈ 44 nM) | 0.229 (≈ 0.265 nM) |
| 33.7 (≈ 40.5 nM) |  |  | CC(=O)O[C@@]12CO[C@@H]1C[C@@H]1C[C@@]13[C@@H]1OC(C)(C)O[C@@H]1C1=C(C)[C@@H](OC(=O)[C@H](O)[C@@H](NC(=O)OC(C)(C)C)c4ccncc4)C[C@@](O)([C@@H](OC(=O)c4ccccc4)[C@H]23)C1(C)C | > 100 | 7.03 (≈ 8.44 nM) |
| 0.151 (≈ 0.181 nM) |  |  | CC(=O)O[C@@]12CO[C@@H]1CC[C@@]1(C)[C@@H]3OC(C)(C)O[C@@H]3C3=C(C)[C@@H](OC(=O)[C@H](O)[C@@H](NC(=O)OC(C)(C)C)c4ccccc4)C[C@@](O)([C@@H](OC(=O)c4ccccc4)[C@@H]12)C3(C)C | 2.91 (≈ 3.49 nM) | 0.332 (≈ 0.398 nM) |
| 0.13 (≈ 0.152 nM) |  |  | CC(=O)O[C@@]12CO[C@@H]1C[C@@H](F)[C@@]1(C)[C@@H]3OC(C)(C)O[C@@H]3C3=C(C)[C@@H](OC(=O)[C@H](O)[C@@H](NC(=O)OC(C)(C)C)c4ccncc4)C[C@@](O)([C@@H](OC(=O)c4ccccc4)[C@H]21)C3(C)C | 3.87 (≈ 4.54 nM) | 0.266 (≈ 0.312 nM) |
| 42.2 | < 4 | < 4 | CC(=O)O[C@@]12CO[C@@H]1C[C@H](O)[C@@]1(C)C(=O)[C@H](O)C3=C(C)[C@@H](OC(=O)[C@H](O)[C@@H](NC(=O)OC(C)(C)C)c4ccccc4)C[C@@](O)([C@@H](OC(=O)c4ccccc4)[C@H]21)C3(C)C.O.O.O [DOCETAXEL] | 135 | 1.48 |
|  | < 4 | < 4 | CC(=O)O[C@H]1C(=O)[C@@]2(C)[C@H]([C@H](OC(=O)c3ccccc3)[C@]3(O)C[C@H](OC(=O)[C@H](O)[C@@H](NC(=O)c4ccccc4)c4ccccc4)C(C)=C1C3(C)C)[C@]1(OC(C)=O)CO[C@@H]1C[C@@H]2O [PACLITAXEL] |  |  |
